Source: US6906035B2, “Antimicrobial cationic peptides” (priority 1995, dated 2005)
Where “and” joins values, the source holds several entries; their conditions need not be identical. Identical values can stand only once. Like-named read-outs stand apart in the source and are kept apart here. Ends that are not written are not given here.

Legend:
[1] = test system: E. cloacae; conditions: agent alone
Method: (§1) FICs are performed by checkerboard titrations of peptides in one dimension of a microtiter plate, and of antibiotics in the other dimension, for example. The FIC is calculated by looking at the impact of one antibiotic on the MIC of the other and vice versa. […] Preferably, an FIC of less than 0.5 is obtained for synergism. As used herein, FIC can be determined as follows: [formula]
(§2) Synergism is identified as an FIC of about ≦0.5.

[2] = test system: A. calcoaceticus; conditions: agent alone
Method: as §1, §2

[3] = test system: P. aeruginosa; assay: microbe, parasite or virus in culture; conditions: agent alone
Method: as §1, §2

[4] = test system: X. maltophila; assay: organism not typed; conditions: agent alone
Method: as §1, §2

[5] = test system: P. aeruginosa; conditions: for MIC: P. aeruginosa (H187), Table 1a; for MIC H103: MBI 29 and MBI21 derivatives
Method: as §1
(§3) Briefly, cells were grown overnight at 37° C. in LB-S (Luria broth without any salt supplement) and diluted one in 10,000 in the same medium to give concentrations of about 10^4 to 10^5 CFU/ml. The broth dilutions were set up in a 96 well microtiter plate by putting 200 μl of LB-S containing the initial concentration of antibiotic or compound in column 1 and 100 μl of the same medium in columns 2-12. The compounds were diluted by taking 100 μl of broth from column 1 and mixing it with column 2, resulting in a one in two dilution. This was continued to column 10. Finally, 10 μl of bacteria were pipetted into columns 1-11, and the plates incubated overnight at 37° C. The next day the plates were scored for growth in the wells, and the MIC determined.

[6] = test system: S. epidermis; conditions: for MIC: S. epidermis, Table 1a; for MIC S. epi 0017: MBI 29 and MBI21 derivatives
Method: as §1, §3

[7] = test system: E. coli; assay: MIC, broth dilution in LB-S; type: cell-based; conditions: for MIC: E. coli (UB1005), Table 1a; for MIC E. coli 0111:B4: MBI 29 and MBI21 derivatives
Method: (§4) The biological activity of the peptides can be determined by standard methods known to those of skill in the art, such as “minimal inhibitory concentration (MIC)” assay described in the present examples, whereby the lowest concentration at which no change in OD is observed for a given period of time is recorded as MIC. Alternatively, “fractional inhibitory concentration (FIC)” is also useful for determination of synergy between the peptides of the invention, or the peptides in combination with known antibiotics. FICs are performed by checkerboard titrations of peptides in one dimension of a microtiter plate, and of antibiotics in the other dimension, for example. The FIC is calculated by looking at the impact of one antibiotic on the MIC of the other and vice versa. […] Preferably, an FIC of less than 0.5 is obtained for synergism. As used herein, FIC can be determined as follows: [formula]
as §3

[8] = test system: S. aureus; assay: MIC, broth dilution in LB-S; type: cell-based; conditions: for MIC: Table 1a; for MIC K147 / MIC SAP: MBI 29 and MBI21 derivatives
Method: as §4, §3

[9] = test system: Candida albicans; assay: MIC, broth dilution in LB-S; type: cell-based; conditions: Candida alibicans (CAN105); Table 1a
Method: as §1, §3

[10] = test system: B. Subtilis; assay: MIC, broth dilution in LB-S; type: cell-based; conditions: MBI 29 and MBI21 derivatives
Method: as §4, §3

[11] = test system: E. faecalis; assay: MIC, broth dilution in LB-S; type: cell-based; conditions: MBI 29 and MBI21 derivatives
Method: as §4, §3

[12] = test system: C610; assay: MIC, broth dilution in LB-S; type: cell-based, S. typhimurium; conditions: MBI 29 and MBI21 derivatives
Method: as §4, §3

[13] = E. cloacae isolate 14, strain 938-2
[14] = A. calcoaceticus isolate 1, strain ATCC 23055
[15] = P. aeruginosa isolate 24, strain 34
[16] = P. aeruginosa isolate 27, strain 14644
[17] = P. aeruginosa isolate 30, strain B3999-1
[18] = P. aeruginosa isolate 31, strain U7688-1
[19] = X. maltophila isolate 36, strain 16
[20] = X. maltophila isolate 39, strain B3110.1
[21] = X. maltophila isolate 42, strain TF29-1
[22] = X. maltophila isolate 43, strain TF29-2
[23] = X. maltophila isolate 44, strain W6896-2
[24] = P. aeruginosa isolate 28, strain 15036
[25] = X. maltophila isolate 35, strain 6
[26] = X. maltophila isolate 38, strain 7901
[27] = X. maltophila isolate 40, strain R1302-1
[28] = X. maltophila isolate 41, strain R4230
[29] = X. maltophila isolate 45, strain W11291
[30] = E. cloacae isolate 18, strain 3077
[31] = P. aeruginosa isolate 23, strain ATCC 27853
[32] = P. aeruginosa isolate 25, strain 923-1
[33] = P. aeruginosa isolate 26, strain 3101
[34] = P. aeruginosa isolate 32, strain W2897-1
[35] = X. maltophila isolate 37, strain 3095

NC[C@H]1O[C@H](O[C@H]2[C@H](O)[C@@H](O[C@H]3O[C@H](CO)[C@@H](O)[C@H](N)[C@H]3O)[C@H](N)C[C@@H]2N)[C@H](N)C[C@@H]1O [Tobramycin]
MIC [1, 13]: 1 µg/mL | MIC ([1]; E. cloacae isolate 15, strain B5546): 1 µg/mL | MIC [2, 14]: 2 µg/mL | MIC [3, 15]: 128 µg/mL | MIC [3, 16]: 1 µg/mL | MIC [3, 17]: 1 µg/mL | MIC [3, 18]: 2 µg/mL | MIC ([3]; P. aeruginosa isolate 33, strain W5483-2): 2 µg/mL | MIC [4, 19]: 128 µg/mL | MIC [4, 20]: 16 µg/mL | MIC [4, 21]: 1 µg/mL | MIC [4, 22]: 1 µg/mL | MIC [4, 23]: 8 µg/mL

MA-20: 20 carboxy terminal amino acids of melittin (MA) [reference compound]
MIC [5]: ≧64 | MIC [6]: ≧64 | MIC [7]: ≧64 | MIC ([8]; S. aureus (K 147)): ≧64 | MIC ([8]; S. aureus (SAP0017)): ≧64 | MIC [9]: ≧64

KKWWRRVLSGLKTAGPAIQSVLNK [MBI21A1]
MIC H103 [5]: 64 µg/mL | MIC S. epi 0017 [6]: 128 µg/mL | MIC B. Subtilis [10]: >128 µg/mL | MIC E. coli 0111:B4 [7]: 16 µg/mL | MIC K147 [8]: >128 µg/mL | MIC SAP [8]: >128 µg/mL | MIC E. faecalis [11]: >128 µg/mL | MIC C610 [12]: 16 µg/mL

CC(C)(O/N=C(\C(=O)N[C@@H]1C(=O)N2C(C(=O)[O-])=C(C[n+]3ccccc3)CS[C@H]12)c1csc(N)n1)C(=O)O [Ceftazidime]
MIC [2, 14]: 4 µg/mL | MIC ([2]; A. calcoaceticus isolate 5, strain 8220): 8 µg/mL | MIC [3, 15]: 64 µg/mL | MIC [3, 16]: 256 µg/mL | MIC [3, 24]: 4 µg/mL | MIC [3, 17]: 8 µg/mL | MIC [4, 25]: 32 µg/mL | MIC [4, 19]: 16 µg/mL | MIC [4, 26]: 256 µg/mL | MIC [4, 20]: 128 µg/mL | MIC [4, 27]: 32 µg/mL | MIC [4, 28]: 8 µg/mL | MIC [4, 22]: 2 µg/mL | MIC [4, 29]: 128 µg/mL and 256 µg/mL

C[C@@H](O)[C@H]1C(=O)N2C(C(=O)O)=C(SCCN=CN)C[C@H]12 [Imipenem]
MIC ([1]; E. cloacae isolate 12, strain ATCC 13047): 2 µg/mL | MIC [1, 13]: 2 µg/mL | MIC [1, 30]: 2 µg/mL | MIC ([1]; E. cloacae isolate 19, strain 3356): 2 µg/mL | MIC ([1]; E. cloacae isolate 20, strain 14269): 2 µg/mL | MIC ([2]; A. calcoaceticus isolate 3, strain 27): 512 µg/mL | MIC ([2]; A. calcoaceticus isolate 4, strain 28): 8 µg/mL | MIC ([2]; A. calcoaceticus isolate 7, strain 8222): 2 µg/mL | MIC ([2]; A. calcoaceticus isolate 11, strain 8226): 2 µg/mL | MIC [3, 31]: 4 µg/mL | MIC [3, 32]: 2 µg/mL | MIC [3, 33]: 4 µg/mL | MIC [3, 16]: 8 µg/mL | MIC [3, 24]: 8 µg/mL | MIC ([3]; P. aeruginosa isolate 29, strain 15545): 128 µg/mL | MIC [3, 17]: 128 µg/mL | MIC [3, 34]: 128 µg/mL | MIC ([4]; X. maltophila isolate 34, strain ATCC 13637): 512 µg/mL | MIC [4, 25]: 512 µg/mL | MIC [4, 19]: 512 µg/mL | MIC [4, 35]: 512 µg/mL | MIC [4, 26]: 512 µg/mL | MIC [4, 20]: 512 µg/mL | MIC [4, 27]: 512 µg/mL | MIC [4, 28]: 512 µg/mL | MIC [4, 21]: 512 µg/mL | MIC [4, 22]: 512 µg/mL | MIC [4, 23]: 512 µg/mL | MIC [4, 29]: 512 µg/mL

KKSFFKKLTSVASSVLS [MBI21A14]
MIC H103 [5]: >128 µg/mL | MIC S. epi 0017 [6]: >128 µg/mL | MIC B. Subtilis [10]: >128 µg/mL | MIC E. coli 0111:B4 [7]: >128 µg/mL | MIC K147 [8]: >128 µg/mL | MIC SAP [8]: >128 µg/mL | MIC E. faecalis [11]: >128 µg/mL | MIC C610 [12]: 128 µg/mL

KWKLFKKIGIGAVLKVLTTGLPALIS [CEME, reference compound]
MIC [5]: 8 µg/mL | MIC [6]: 16 µg/mL | MIC [7]: 5 µg/mL | MIC ([8]; S. aureus (K 147)): 32 µg/mL | MIC ([8]; S. aureus (SAP0017)): 24 µg/mL | MIC [9]: 64 µg/mL

KWKLFKKKGTGAVLTVLTTGLPALIS [MBI29A3]
MIC H103 [5]: 16 µg/mL | MIC S. epi 0017 [6]: 16 µg/mL | MIC B. Subtilis [10]: 16 µg/mL | MIC E. coli 0111:B4 [7]: 8 µg/mL | MIC K147 [8]: 32 µg/mL | MIC SAP [8]: 32 µg/mL | MIC E. faecalis [11]: >128 µg/mL | MIC C610 [12]: 8 µg/mL

KWWRRALQGLKTAGPAIQSVLNK [MBI21A2]
MIC H103 [5]: 128 µg/mL | MIC S. epi 0017 [6]: >128 µg/mL | MIC B. Subtilis [10]: >128 µg/mL | MIC E. coli 0111:B4 [7]: 32 µg/mL | MIC K147 [8]: >128 µg/mL | MIC SAP [8]: >128 µg/mL | MIC E. faecalis [11]: >128 µg/mL | MIC C610 [12]: 16 µg/mL

KWKSFIKNLTKVLKKVVTTALPALIS [MBI29A2]
MIC H103 [5]: 16 µg/mL | MIC S. epi 0017 [6]: 16 µg/mL | MIC B. Subtilis [10]: 8 µg/mL | MIC E. coli 0111:B4 [7]: 8 µg/mL | MIC K147 [8]: 16 µg/mL | MIC SAP [8]: 8 µg/mL | MIC E. faecalis [11]: 64 µg/mL | MIC C610 [12]: 8 µg/mL

KWKSFIKKLTSVLKKVVTTALPALIS [MBI29A1]
MIC H103 [5]: 16 µg/mL | MIC S. epi 0017 [6]: 16 µg/mL | MIC B. Subtilis [10]: 16 µg/mL | MIC E. coli 0111:B4 [7]: 4 µg/mL | MIC K147 [8]: 16 µg/mL | MIC SAP [8]: 16 µg/mL | MIC E. faecalis [11]: 64 µg/mL | MIC C610 [12]: 8 µg/mL

O=C(O)c1cn(C2CC2)c2cc(N3CCNCC3)c(F)cc2c1=O [Ciprofloxacin]
MIC [3, 24]: 32 µg/mL | MIC [4, 23]: 8 µg/mL

CCN1CCN(C(=O)N[C@@H](C(=O)N[C@@H]2C(=O)N3[C@@H]2SC(C)(C)[C@@H]3C(=O)O)c2ccccc2)C(=O)C1=O [Piperacillin]
MIC [1, 13]: 4 µg/mL | MIC [1, 30]: 4 µg/mL | MIC ([1]; E. cloacae isolate 21, strain 14661): 8 µg/mL | MIC ([2]; A. calcoaceticus isolate 9, strain 8224): 128 µg/mL | MIC [3, 31]: 128 µg/mL | MIC [3, 32]: 32 µg/mL | MIC [3, 33]: 128 µg/mL | MIC [3, 16]: 1024 µg/mL | MIC [3, 17]: 256 µg/mL | MIC [3, 18]: 256 µg/mL | MIC [3, 34]: 32 µg/mL | MIC ([3]; Pseudomonas aeruginosa, P. aeruginosa isolate 23, strain ATCC 27853): 256 µg/mL | MIC [4, 35]: 1024 µg/mL | MIC [4, 26]: 1024 µg/mL | MIC [4, 20]: 1024 µg/mL | MIC [4, 27]: 1024 µg/mL | MIC [4, 29]: 1024 µg/mL
